Test results reported in US20230129258A1, “HETEROTANDEM BICYCLIC PEPTIDE COMPLEXES” (BicycleTx Limited, priority 2019, published 2023).
Starred links: 1 amine or outer side, 2 acyl side, 3 side chain; linkers in the order of their positions; H or OH if unused. Positions of bridges follow the written chain, without caps; N, C: chain ends. Non-standard residues stand in square brackets, D forms with d. Chains are numbered I, II in the order given. X1 = O=C(CCOCCOCCOCCN(CCOCCOCCOCCn1cc(CCC(=O)[*:2])nn1)CCOCCOCCOCCn1cc(CCC(=O)[*:3])nn1)[*:1]; X3 = O=C(CCc1cn(CCOCCOCCOCCN(CCOCCOCCOCCC(=O)[*:3])CCOCCOCCOCCn2cc(CCC(=O)[*:2])nn2)nn1)[*:1]; X2 = O=C(CCSCCC(=O)[*:1])N1CN(C(=O)CC[*:2])CN(C(=O)CC[*:3])C1; TATA = O=C(CC[*:1])N1CN(C(=O)CC[*:2])CN(C(=O)CC[*:3])C1; Dip = N[C@H](C(=O)O)C(c1ccccc1)c1ccccc1; 1Nal = N[C@@H](Cc1cccc2ccccc12)C(=O)O; Hyp = O=C(O)[C@@H]1C[C@@H](O)CN1; hArg = N=C(N)NCCCC[C@H](N)C(=O)O; tBuAla = CC(C)(C)C[C@H](N)C(=O)O; Aad = N[C@@H](CCCC(=O)O)C(=O)O; Cba = N[C@@H](CC1CCC1)C(=O)O; dNle = CCCC[C@@H](N)C(=O)O; NMeA = CN[C@@H](C)C(=O)O; Nle = CCCC[C@H](N)C(=O)O; Mpa = O=C(O)CCS

Target: CD137 (Homo sapiens, UniProt Q07011)
Sequence (Q07011 24-255): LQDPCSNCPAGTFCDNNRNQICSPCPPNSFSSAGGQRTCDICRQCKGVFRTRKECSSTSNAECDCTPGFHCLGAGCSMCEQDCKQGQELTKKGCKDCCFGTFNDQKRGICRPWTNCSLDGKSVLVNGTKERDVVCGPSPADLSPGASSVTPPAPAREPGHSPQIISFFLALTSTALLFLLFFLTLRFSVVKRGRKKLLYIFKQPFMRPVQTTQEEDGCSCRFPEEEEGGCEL
Experiment: CD137 reporter assay (Promega, Jurkat cells) in co-culture with EphA2-expressing tumor cells (A549, PC3, HT29)
Assay type: cell-based
Parameters: host or cells: Jurkat reporter cells
Details: for fold induction / Emax (fold induction over background): CD137 reporter coculture assay with PC3 tumor cells; for fold induction: read-out: Emax (fold induction over background); for EC50: EC50, CD137 reporter coculture assay with PC3 tumor cells
Experimental: Culture medium, referred to as R1 media, is prepared by adding 1% FBS to RPMI-1640 (component of Promega kit CS196005). Serial dilutions of test articles in R1 are prepared in a sterile 96 well-plate. Add 25 μL per well of test articles or R1 (as a background control) to designated wells in a white cell culture plate. Tumor cells* are harvested and resuspended at a concentration of 400,000 cells/mL in R1 media. Twenty five (25) μL/well of tumor cells are added to the white cell culture plate. Jurkat cells (Promega kit CS196005, 0.5 mL) are thawed in the water bath and then added to 5 ml pre-warmed R1 media. Twenty five (25) μL/well of Jurkat cells are then added to the white cell culture plate. Incubate the cells and test articles for 6 h at 37° C., 5% CO2. At the end of 6 h, add 75 μL/well Bio-Glo™ reagent (Promega) and incubate for 10 min before reading luminescence in a plate reader (Clariostar, BMG). The fold change relative to cells alone (Jurkat cells+Cell line used in co-culture) is calculated and plotted in GraphPad Prism as log(agonist) vs response to determine EC50 (nM) and Fold Induction over background (Max).
The tumor cell types used in co-culture for EphA2 are A549, PC3 and HT29. The tumor cell type used in co-culture for PD-L1 is RKO.

Substance	fold induction	EC50 [nM]	Emax (fold induction over background)
I: A[hArg]DC[Hyp]LVNPLCLHP[dNle]W[hArg]C-NH2 / II: Ac-C[tBuAla]PE[dK]PYCFADPY[Nle]CA-NH2 / III: Ac-C[tBuAla]PE[dK]PYCFADPY[Nle]CA-NH2 (linker I:4-I:11-I:18, II:1-II:8-II:15, III:1-III:8-III:15 via TATA; linker I:N-II:5-III:5 via X1) [BCY13288]	43.3	0.09	–
I: A[hArg]DC[Hyp]LVNPLCL[1Nal]P[dD]W[hArg]C-NH2 / II: Ac-C[tBuAla]PE[dK]PYCFADPY[Nle]CA-NH2 / III: Ac-C[tBuAla]PE[dK]PYCFADPY[Nle]CA-NH2 (linker I:4-I:11-I:18, II:1-II:8-II:15, III:1-III:8-III:15 via TATA; linker I:N-II:5-III:5 via X1) [BCY13271]	–	0.09	44.20
I: A[hArg]DC[Hyp]LVNPLCL[Aad]P[dD]W[hArg]C-NH2 / II: Ac-C[tBuAla]PE[dK]PYCFADPY[Nle]CA-NH2 / III: Ac-C[tBuAla]PE[dK]PYCFADPY[Nle]CA-NH2 (linker I:4-I:11-I:18, II:1-II:8-II:15, III:1-III:8-III:15 via TATA; linker I:N-II:5-III:5 via X1) [BCY13286]	34.1	0.11	–
I: A[hArg]DC[Hyp]LVNPLCL[Dip]P[dD]W[hArg]C-NH2 / II: Ac-C[tBuAla]PE[dK]PYCFADPY[Nle]CA-NH2 / III: Ac-C[tBuAla]PE[dK]PYCFADPY[Nle]CA-NH2 (linker I:4-I:11-I:18, II:1-II:8-II:15, III:1-III:8-III:15 via TATA; linker I:N-II:5-III:5 via X1) [BCY13054]	–	0.07	36.53
I: A[hArg]DC[Hyp]LVNPLCL[Nle]P[dD]W[hArg]C-NH2 / II: Ac-C[tBuAla]PE[dK]PYCFADPY[Nle]CA-NH2 / III: Ac-C[tBuAla]PE[dK]PYCFADPY[Nle]CA-NH2 (linker I:4-I:11-I:18, II:1-II:8-II:15, III:1-III:8-III:15 via TATA; linker I:N-II:5-III:5 via X1) [BCY13289]	45.8	0.08	–
I: A[hArg]DC[Hyp]LVNPLC[Aad]HP[dD]W[hArg]C-NH2 / II: Ac-C[tBuAla]PE[dK]PYCFADPY[Nle]CA-NH2 / III: Ac-C[tBuAla]PE[dK]PYCFADPY[Nle]CA-NH2 (linker I:4-I:11-I:18, II:1-II:8-II:15, III:1-III:8-III:15 via TATA; linker I:N-II:5-III:5 via X1) [BCY13285]	–	0.26	36.53
I: A[hArg]DC[Hyp][Aad]VNPLCLHP[dD]W[hArg]C-NH2 / II: Ac-C[tBuAla]PE[dK]PYCFADPY[Nle]CA-NH2 / III: Ac-C[tBuAla]PE[dK]PYCFADPY[Nle]CA-NH2 (linker I:4-I:11-I:18, II:1-II:8-II:15, III:1-III:8-III:15 via TATA; linker I:N-II:5-III:5 via X1) [BCY13284]	34.7	0.25	–
I: A[hArg]DC[Hyp][Cba]VNPLCLEP[dD]WTC-NH2 / II: Ac-C[tBuAla]PE[dK]PYCFADPY[Nle]CA-NH2 / III: Ac-C[tBuAla]PE[dK]PYCFADPY[Nle]CA-NH2 (linker I:4-I:11-I:18, II:1-II:8-II:15, III:1-III:8-III:15 via TATA; linker I:N-II:5-III:5 via X1) [BCY13051]	–	0.21	37.05
I: A[hArg]EC[Hyp]LVNPLCLHP[dE]W[hArg]C-NH2 / II: Ac-C[tBuAla]PE[dK]PYCFADPY[Nle]CA-NH2 / III: Ac-C[tBuAla]PE[dK]PYCFADPY[Nle]CA-NH2 (linker I:4-I:11-I:18, II:1-II:8-II:15, III:1-III:8-III:15 via TATA; linker I:N-II:5-III:5 via X1) [BCY12978]	78.1	–	–
I: Ac-A[hArg]DC[Hyp]KVNPLCLHP[dD]W[hArg]C-NH2 / II: Ac-C[tBuAla]PE[dK]PYCFADPY[Nle]CA-NH2 / III: Ac-C[tBuAla]PE[dK]PYCFADPY[Nle]CA-NH2 (linker I:4-I:11-I:18, II:1-II:8-II:15, III:1-III:8-III:15 via TATA; linker I:6-II:5-III:5 via X1) [BCY12975]	68.8	0.16	–
I: Ac-A[hArg]DC[Hyp]LVNPLCKHP[dD]W[hArg]C-NH2 / II: Ac-C[tBuAla]PE[dK]PYCFADPY[Nle]CA-NH2 / III: Ac-C[tBuAla]PE[dK]PYCFADPY[Nle]CA-NH2 (linker I:4-I:11-I:18, II:1-II:8-II:15, III:1-III:8-III:15 via TATA; linker I:12-II:5-III:5 via X1) [BCY12976]	73.2	0.18	–
I: Ac-A[hArg]DC[Hyp]LVNPLCLHP[dD]W[hArg]CK-NH2 / II: Ac-C[tBuAla]PE[dK]PYCFADPY[Nle]CA-NH2 / III: Ac-C[tBuAla]PE[dK]PYCFADPY[Nle]CA-NH2 (linker I:4-I:11-I:18, II:1-II:8-II:15, III:1-III:8-III:15 via TATA; linker I:19-II:5-III:5 via X1) [BCY12973]	48.6	0.16	–
I: Ac-A[hArg]DC[Hyp]LVNPLCLKP[dD]W[hArg]C-NH2 / II: Ac-C[tBuAla]PE[dK]PYCFADPY[Nle]CA-NH2 / III: Ac-C[tBuAla]PE[dK]PYCFADPY[Nle]CA-NH2 (linker I:4-I:11-I:18, II:1-II:8-II:15, III:1-III:8-III:15 via TATA; linker I:13-II:5-III:5 via X1) [BCY12974]	59.6	0.18	–
I: Ac-C[Hyp]LVNPLCL[Dip]P[dD]WTC[dK]-NH2 / II: Ac-C[tBuAla]PE[dK]PYCFADPY[Nle]CA-NH2 / III: Ac-C[tBuAla]PE[dK]PYCFADPY[Nle]CA-NH2 (linker I:1-I:8-I:15, II:1-II:8-II:15, III:1-III:8-III:15 via TATA; linker I:16-II:5-III:5 via X1; C-terminus assumed) [BCY13274]	–	0.19	47.43
I: Ac-C[tBuAla]PE[dK]PYCFADPY[Nle]CA-NH2 / II: Ac-C[tBuAla]PE[dK]PYCFADPY[Nle]CA-NH2 / III: C[Hyp]LVNPLCL[1Nal]P[dD]WTC-NH2 (linker I:1-I:8-I:15, II:1-II:8-II:15, III:1-III:8-III:15 via TATA; linker I:5-II:5-III:N via X3) [BCY13273]	–	–	51.27
I: C[Hyp]LVNPLCLEP[dD]WTC[dA]-NH2 / II: Ac-C[tBuAla]PE[dK]PYCFADPY[Nle]CA-NH2 / III: Ac-C[tBuAla]PE[dK]PYCFADPY[Nle]CA-NH2 (linker I:1-I:8-I:15, II:1-II:8-II:15, III:1-III:8-III:15 via TATA; linker I:N-II:5-III:5 via X1) [BCY13049]	–	–	46.03
I: C[Hyp]LVNPLCL[Dip]P[dD]WTC-NH2 / II: [Mpa][tBuAla]PE[dK]PYCFADPY[Nle]C-NH2 / III: [tBuAla]PE[dK]PYCFADPY[Nle]C-NH2 (linker I:1-I:8-I:15, II:1-II:8-II:15 via TATA; linker I:N-II:5-III:4 via X1; linker III:N-III:7-III:14 via X2) [BCY13343]	–	0.11	44.00
I: C[Hyp][Cba]VNPLCL[Dip]P[dD]WTC[dA]-NH2 / II: Ac-C[tBuAla]PE[dK]PYCFADPY[Nle]CA-NH2 / III: Ac-C[tBuAla]PE[dK]PYCFADPY[Nle]CA-NH2 (linker I:1-I:8-I:15, II:1-II:8-II:15, III:1-III:8-III:15 via TATA; linker I:N-II:5-III:5 via X1) [BCY13053]	–	0.1	40.33
I: C[Hyp][Cba]VNPLCL[Dip]P[dD]WTC[dA]-NH2 / II: [Mpa][tBuAla]PE[dK]PYCFADPY[Nle]C-NH2 / III: [tBuAla]PE[dK]PYCFADPY[Nle]C-NH2 (linker I:1-I:8-I:15, II:1-II:8-II:15 via TATA; linker I:N-II:5-III:4 via X1; linker III:N-III:7-III:14 via X2) [BCY13341]	–	0.19	49.15
I: [NMeA][hArg]DC[Hyp]LVNPLCLEP[dD]WTC-NH2 / II: Ac-C[tBuAla]PE[dK]PYCFADPY[Nle]CA-NH2 / III: Ac-C[tBuAla]PE[dK]PYCFADPY[Nle]CA-NH2 (linker I:4-I:11-I:18, II:1-II:8-II:15, III:1-III:8-III:15 via TATA; linker I:N-II:5-III:5 via X1) [BCY13276]	50.5	0.1	–
I: [NMeA][hArg]DC[Hyp]LVNPLCLHP[dD]W[hArg]C-NH2 / II: Ac-C[tBuAla]PE[dK]PYCFADPY[Nle]CA-NH2 / III: Ac-C[tBuAla]PE[dK]PYCFADPY[Nle]CA-NH2 (linker I:4-I:11-I:18, II:1-II:8-II:15, III:1-III:8-III:15 via TATA; linker I:N-II:5-III:5 via X1) [BCY13275]	–	0.08	47.50
